Reference: article PMC11360128, “Rigid Macrocycle Metal Complexes as CXCR4 Chemokine Receptor Antagonists: Influence of Ring Size” (Pharmaceutics, 2024)
Where two headings read alike, the source gives them in different places.

Tests used:
PHA-stimulated PBMCs = assay: Cellular cytotoxicity, microscopic evaluation and MTS assay; type: cell-based, human; details: 48 h, MTS, read-out: Toxicity CC50 PMBCs
From the text: (§1) Buffy coat preparations from healthy donors were obtained from the Blood Bank in Leuven, Belgium. For the chemokine binding studies, peripheral blood mononuclear cells (PBMCs) activated with phytohemagglutinin (PHA; Sigma, Belgium) were used. Human T-lymphocytic SUP-T1 cells and TZM-bl cells were obtained from the American Type Culture Collection (Rockville, MD) and maintained in RPMI-1640 supplemented with 10% foetal bovine serum (FBS). Human glioblastoma U87.MG and U87.CD4 cells were kindly provided by Dr. D. Littman and used to generate cells expressing CXCR4 or CCR5 [48]. The fluorescent chemokines CXCL12^AF647 and CCL5^AF647 were purchased from Almac. […] HIV-1 NL4-3 (CXCR4-using, X4) and HIV-1 BaL (CCR5-using, R5) were obtained through the AIDS Research and Reference Reagent Program (Division of AIDS, NIAID, NIH).
(§2) Cytotoxicity of the compounds was evaluated after 48 h of incubation at 37 °C in PHA-stimulated PBMCs (5 × 10^5 cells per well in culture medium). Each condition was tested in duplicate. Cytotoxicity was evaluated microscopically, and in addition, the cell viability was assessed using the colorimetric CellTiter 96 AQueous One Solution Cell Proliferation Assay (Promega, Fitchburg, WI, USA), which is based on the reduction of the tetrazolium salt MTS [3-(4,5-dimethylthiazol-2-yl)-5-(3-carboxymethoxyphenyl)-2-(4-sulfophenyl)-2H-tetrazolium] to formazan by metabolically active cells. Absorbance at 490 nm was measured with the Versa-Max ELISA microplate reader (Molecular Devices, Sunnyvale, CA, USA). The cytotoxic concentration 50 (CC50) of each compound was calculated based on the absorbance of negative (i.e., cells without compound) and positive (i.e., only culture medium) control samples.
(§3) The cellular cytotoxicity of all compounds was evaluated in PHA-stimulated PBMCs.

HIV-1 NL4-3 (X4) = assay: HIV infection assay, Tat-regulated luciferase reporter in TZM-bl cells, CXCR4-using strain; type: cell-based; details: replication of HIV-1 NL4-3 (X4) in TZM-bl cells, mean ± SEM, read-out: Anti-HIV Activity IC50 NL4-3 (X4)
From the text: (§4) Buffy coat preparations from healthy donors were obtained from the Blood Bank in Leuven, Belgium. For the chemokine binding studies, peripheral blood mononuclear cells (PBMCs) activated with phytohemagglutinin (PHA; Sigma, Belgium) were used. Human T-lymphocytic SUP-T1 cells and TZM-bl cells were obtained from the American Type Culture Collection (Rockville, MD) and maintained in RPMI-1640 supplemented with 10% foetal bovine serum (FBS). Human glioblastoma U87.MG and U87.CD4 cells were kindly provided by Dr. D. Littman and used to generate cells expressing CXCR4 or CCR5 [48]. The fluorescent chemokines CXCL12^AF647 and CCL5^AF647 were purchased from Almac. […]
(§5) TZM-bl cells were seeded in transparent 96-well plates at 1 × 10^4 cells per well in DMEM (Dulbecco’s modified Eagle medium; Life Technologies, Waltham, MA, USA) with 10% FBS and 10 mM HEPES. […] After 48 h of incubation, the assay plates were analysed. […] The luminescent signal of the lysed cell suspension was analysed in white 96-well plates on a Spectra-Max L luminescence microplate reader (Molecular Devices, Sunnyvale, CA, USA) after a 10 min incubation period in the dark. Luciferase activity induced by HIV-1 Tat protein expression was measured as an assessment of the amount of HIV replication. […]

HIV-1 BaL (R5) = assay: microbe, parasite or virus in culture; details: read-out: Anti-HIV Activity IC50 BaL (R5)
From the text: as §4, §5

CCR5 [1] = target: T1, CCR5 (Homo sapiens, UniProt P51681); assay: CCL5^AF647 chemokine binding inhibition assay in PBMCs; details: AF647-labelled CCL5 in PBMCs; mean ± SEM; read-out: Competition Binding Assay IC50 CCL5
T1 construct: endogenous in cells
T1 sequence (P51681 whole entry): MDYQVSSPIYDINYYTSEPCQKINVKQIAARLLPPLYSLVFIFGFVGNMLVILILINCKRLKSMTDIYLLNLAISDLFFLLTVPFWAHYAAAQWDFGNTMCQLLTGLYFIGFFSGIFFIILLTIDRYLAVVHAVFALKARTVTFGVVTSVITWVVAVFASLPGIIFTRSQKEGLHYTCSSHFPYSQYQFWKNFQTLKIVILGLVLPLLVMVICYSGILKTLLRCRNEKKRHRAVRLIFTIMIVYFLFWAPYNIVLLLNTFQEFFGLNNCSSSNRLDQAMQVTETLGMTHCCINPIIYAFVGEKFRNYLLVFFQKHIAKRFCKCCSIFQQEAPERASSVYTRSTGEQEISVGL
Protocol: Human PBMCs were washed once with assay buffer (Hanks’ balanced salt solution with 20 mM HEPES buffer and 0.2% bovine serum albumin, pH 7.4) and then incubated for 15 min at room temperature with the sample diluted in assay buffer at the indicated concentrations. Subsequently, CXCL12^AF647 (25 ng/mL) or CCL5^AF647 (50 ng/mL) was added to the compound-incubated cells. The cells were incubated for 30 min at room temperature. Thereafter, the cells were washed twice in assay buffer, fixed in 1% paraformaldehyde in PBS, and analysed on the FL4 channel of a FACSCalibur flow cytometer equipped with a 635 nm red diode laser (Becton Dickinson, San Jose, CA, USA). The percentage of inhibition of CXCL12^AF647 or CCL5^AF647 binding was calculated according to the formula: [1 − ((MFI − MFINC)/(MFIPC − MFINC))] × 100, where MFI is the mean fluorescence intensity of the cells incubated with CXCL12^AF647 or CCL5^AF647 in the presence of the inhibitor, MFINC is the mean fluorescence intensity measured in the negative control (i.e., autofluorescence of unlabelled cells), and MFIPC is the mean fluorescence intensity of the positive control (i.e., cells exposed to CXCL12^AF647 or CCL5^AF647 alone).
Binding affinity and selectivity towards CXCR4 were further evaluated through competition binding assays using natural chemokine ligands, tagged with Alexa Fluor 647, as previously reported. […]

[2] = Cellular cytotoxicity, microscopic evaluation and MTS assay; type: cell-based, human; details: human, PHA-stimulated PBMCs, MTS, read-out: Toxicity CC50 PMBCs
From the text: as §1, §2, §3

CCR5 [3] = target: T1, CCR5; assay: CCL3L1-induced intracellular calcium mobilisation in CCR5-transfected U87 cells (FLIPR); type: cell-based; details: mean ± SEM, read-out: Ca^2+ Signalling Assay IC50 CCL3L1
Protocol: CXCR4- or CCR5-positive U87 glioblastoma/astrocytoma cells were loaded with the fluorescent calcium indicator Fluo-3 acetoxymethyl (Molecular Probes) at 4 µM in the assay buffer (Hanks’ balanced salt solution with 20 mM HEPES buffer and 0.2% bovine serum albumin, pH 7.4) for 45 min at room temperature. After thorough washing with the assay buffer, cells were pre-incubated for 10 min at 37 °C in the same buffer with the compounds of interest. The intracellular calcium mobilisation in response to CXCL12 (CXCR4 chemokine ligand) or CCL3L1 (CCR5 chemokine ligand) was then measured at 37 °C by monitoring the fluorescence as a function of time simultaneously in all the wells by using a fluorometric imaging plate reader (FLIPR; Molecular Devices, Sunnyvale, CA, USA).
The potency of the different metal complexes was investigated in a functional downstream receptor signalling assay. The inhibitory effect of the tested compounds was examined by Ca^2+ mobilisation studies with the natural ligands CXCL12 and CCL3L1 for the chemokine receptors CXCR4 and CCR5, respectively. The Ca^2+ ions released from the endoplasmic reticulum were measured over time in CXCR4- or CCR5-transfected U87 glioblastoma cells via their specific interaction with the fluorescent Ca^2+ indicator Fluo-3 [63].

| Compound | CC50 (PHA-stimulated PBMCs) [µM] | IC50 (HIV-1 NL4-3 (X4)) [µM] | IC50 (HIV-1 BaL (R5); replication of HIV-1 BaL (R5) in TZM-bl cells, mean ± SEM) [µM] | IC50 (HIV-1 NL4-3 (X4); Human immunodeficiency virus 1, NL43) [µM] | IC50 (HIV-1 BaL (R5); Human immunodeficiency virus 1, BAL, TZM-bl) [µM] | IC50 (CCR5 [1]) [µM] | CC50 at 48 h [2] [µM] | IC50 (CCR5 [3]) [µM] |
| --- | --- | --- | --- | --- | --- | --- | --- | --- |
| [Cu+2].[Cu+2].c1cc(CN2CCCNCCNCCCNCC2)ccc1CN1CCCNCCNCCCNCC1 [Cu2L^1] | ≥ 100 | – | – | – | – | – | – | – |
| Maraviroc [reference compound] | – | > 20 | 0.0029 ± 0.0012 | – | – | – | – | – |
| c1cc(CN2CCCNCCNCCCNCC2)ccc1CN1CCCNCCNCCCNCC1 [AMD3100, reference compound] | > 100 | – | – | 0.00042 ± 0.00014 | > 20 | > 1 | ≥ 100 | > 20 |
